Data from patent US20140056951A1, “METHODS AND COMPOSITIONS FOR TREATING BIOFILMS” (PRESIDENT AND FELLOWS OF HARVARD COLLEGE, priority 2011, published 2014).
Like-named read-outs stand apart in the source and are kept apart here.

Assays:
B. subtilis pellicles = assay: Disassembly of pre-formed pellicles, B. subtilis; format: cell-based, Bacillus subtilis; settings: 250 μM applied at day 2, additional 24 hrs
Protocol: After incubation for the indicated times, pellicle material and the medium were separated and each brought to a volume of 3 ml. After mild sonication, the OD600 was determined for each sample. The % of disassembly represents the OD600 of the medium as a percent of the sum of the OD600 of the medium and the OD600 of the pellicle. […] Thus, D-amino acids and norspermidine act synergistically in preventing biofilm formation and triggering the disassembly of mature biofilms.
Whether polyamines could trigger disassembly of biofilms formed by B. subtilis was examined. B. subtilis wild-type cells grown in liquid biofilm medium. Cells were grown to mid-logarithmic phase and diluted 1:1000 in liquid biofilm media. At day 2, pre-formed pellicles were applied with either PBS (A) or norspermine (250 μM) (B). Pellicles were incubated for additional 24 hrs.

[1] = tested on: Proteus mirabilis strain BB2000; assay: Proteus mirabilis biofilm formation in polystyrene wells, crystal violet staining; format: cell-based; settings: 1 mM, M9 + glucose, 48 hours at 30° C., OD 595 nm
Protocol: To examine the effects of polyamines on biofilm formation, wells were initially treated with water (no treatment), 1 mM norspermidine, and 1 mM norspermine in 3 ml M9 + glucose before inoculation with P. mirabilis. Biofilms were permitted to grow for 48 hours at 30° C. without shaking The amount of biofilm formed was assessed with the standard assay of crystal violet staining (O'Toole G et al., Biofilm formation as microbial development, Annu Rev. Microbiol. (2000) 54:49-79); supernatant was removed from the wells and crystal violet (at […]) was then incubated in each well for 15 minutes at room temperature, followed by removal of the crystal violet from the wells and a subsequent washes with water. Any crystal violet attached the wells was next solubilized with 95% ethanol for 15 minutes at room temperature, and the subsequent optical density at 595 nm in each well was measured with a multiplate reader.

[2] = tested on: B. subtilis wild-type cells; assay: Biofilm formation on solid biofilm medium, B. subtilis; format: cell-based, Bacillus subtilis; settings: 1 μl of cells mixed with 1 μl (1 mM) polyamine
Protocol: B. subtilis wild-type cells were grown to a mid-logarithmic phase and 1 μl of cells was mixed with 1 μl (1 mM) of each polyamine. The mixture was plated on solid biofilm medium.
B. subtilis wild-type cells were grown to a mid-logarithmic phase and 1 μl of cells was either mixed with PBS (18C) or mixed with 1 μl (1 mM) of each polyamine (18D). The mixture was plated on solid biofilm medium. “3*” refers to 1,5,9-Triazacyclododecane.

[3] = tested on: P. aeriginosa strain PA14; assay: Biofilm formation by Pseudomonas on solid M63 medium; format: cell-based, Pseudomonas aeruginosa; settings: 1 μl of cells mixed with 1 μl (10 mM) polyamine
Protocol: The effect of polyamines on biofilm formation by Pseudomonas was examined. P. aeriginosa strain PA14 were grown to a mid-logarithmic phase and 1 μl of cells was mixed with 1 μl (10 mM) of each polyamine. The mixture was plated on solid M63 medium.

E. coli strain MC4100 = assay: Submerged biofilm formation by E. coli, crystal violet staining; format: cell-based, Escherichia coli; settings: compounds tested at 500 μM
Protocol: (§1) The compounds were tested at 500 μM. Biofilm formation was visualized by crystal violet staining of submerged biofilms.
(§2) Whether polyamines might prevent biofilm formation by other bacteria that produce an exopolysaccharide matrix was examined. […] The compounds were tested at 500 μM. Biofilm formation was visualized by crystal violet staining of submerged biofilms.
(§3) In testing E. coli, the biofilm-proficient strain MC4100 was selected because a major component of exopolysacchride is colanic acid (Danese et al., 2000; Price and Raivio, 2009).

[4] = tested on: B. subtilis strain NCBI3610; assay: Biofilm (pellicle) inhibition assay, B. subtilis in liquid biofilm-inducing medium; format: cell-based, Bacillus subtilis; settings: for minimal effective concentration: Bacillus subtilis; for inhibition of pellicle formation at 50 μM: cells diluted 1:1000 in biofilm media, final concentration 50 μM
Protocol: Bacillus subtilis strains PY79, 3610 and their derivatives were grown in Luria-Bertani (LB) medium at 37° C. or MSgg medium (1) at 23° C. Solid media contained 1.5% Bacto agar. When appropriate, antibiotics were added at the following concentrations for growth of B. subtilis: 10 μg per ml of tetracycline, and 5 μg per ml of erythromycin, 500 μg per ml of spectinomycin.
B. subtilis strain NCBI3610 was grown at 22° C. in 12-well plates in liquid biofilm-inducing medium for 3 or 8 days. Conditioned medium (500 ml) from an 8-day-old culture was concentrated on the C-18 column and eluted step-wise with methanol. […]
Pellicle formation of strain NCBI 3610 was tested in the presence of the indicated concentrations of norspermidine (FIG. 1D) or spermidine (FIG. 1E).
To identify features of norspermidine important for its biofilm disassembly activity, we tested a library of polyamines in our biofilm inhibition assay (FIGS. 9A, 9B, 10 and Table 2).
The effect of polyamines on pellicle formation by B. subtilis was examined. B. subtilis wild-type cells were grown to a mid-logarithmic phase and diluted 1:1000 in biofilm media applied with each polyamine to the final concentration of 50 μM.
The effect of cyclic polyamines on biofilm formation by B. subtilis was examined. B. subtilis wild-type cells were grown to a mid-logarithmic phase and diluted 1:1000 in biofilm media (18A) or in a medium applied with cyclic compound 1,5,9-Triazacyclododecane to the final concentration of 50 μM (18B).

S. aureus strain SCO1 = assay: Submerged biofilm formation by S. aureus, crystal violet staining; format: cell-based, Staphylococcus aureus; settings: for inhibition of S. aureus biofilm formation: TSB with NaCl (3%) and Glucose (0.5%), norspermidine 10 μM, norspermine 100 μM; for inhibition of S. aureus submerged biofilm formation, compound screen: compounds tested at 500 μM
Protocol: as §1, §2
The medium was applied with norspermidine (10 μM), norspermine (100 μM) or spermine (500 μM). Planktonic cells were removerd (19A-D). Wells were washed once, and incubated with Crystal Violet (0.1%) for 15 mins. Wells were washed twice in DDW (19E-H).
The effect of certain polyamines combined with biofilm-inhibiting D-amino acids in Staphylococcus was examined. S. aureus strain SC-01 was grown to a mid-logarithmic phase and diluted 1:1000 into a 12 wells plate in a TSB medium applied with NaCl (3%) and Glucose (0.5%). The medium was applied with either norspermidine or D-tyrosine or both as indicated below each panel. Planktonic cells were removerd Wells were washed once, and incubated with Crystal Violet (0.1%) for 15 mins. Wells were washed twice in DDW.

[5] = tested on: exopolysaccharide of E. coli cells; assay: Fluorescence microscopy of exopolysaccharide staining, E. coli; format: cell-based, Escherichia coli
Excerpt: as §3

[6] = tested on: B. subtilis NCBI 3610 / strain FC5 (PepsA-lacZ); assay: Growth and matrix operon expression in shaking MSgg medium; format: cell-based, Bacillus subtilis; settings: 100 μM, MSgg medium with shaking
Protocol: Strain FC5 (carrying PepsA-lacZ) was grown in MSgg medium containing norspermidine (100 μM) with shaking or in untreated medium as control (NT).
NCBI 3610 was grown in MSgg medium applied with norspermidine (100 μM) with shaking or in untreated medium served as a control (NT). […] Therefore, whether norspermidine interacts directly with the exopolysaccharide was investigated. To attempt to detect such an interaction, dynamic light scattering was used. Dynamic scattering is a standard procedure for measuring the average radius of polymers in which a laser beam is transmitted through a sample containing polymers in solution (Berne, 1976; Orgad et al., 2011; Vinayahan et al., 2010).

[7] = tested on: exopolysaccharide of S. aureus cells; assay: Fluorescence microscopy of exopolysaccharide staining, S. aureus; format: cell-based, Staphylococcus aureus
[8] = tested on: B. subtilis exopolysaccharide mutant (ΔepsH; DS76) and TasA mutant (ΔtasA; FC55); assay: Pellicle formation by matrix mutants in presence of norspermidine; format: cell-based, Bacillus subtilis; settings: 25 μM norspermidine, 3-day-old cultures
Excerpt: It was observed that the residual pellicle (wispy fragments of floating material with some structure) produced in the presence of norspermidine resembled pellicles seen for a mutant blocked in exopolysaccharide production but not those seen (thin, featureless pellicles) for a mutant blocked in amyloid-fiber production. […] In other words, the effect of norspermidine was synergistic with that of a mutation blocking fiber formation but not with a mutant blocked in exopolysaccharide production (FIG. 4B).

[9] = tested on: exopolysaccharide and TasA of B. subtilis NCBI 3610; assay: Fluorescence microscopy of matrix components (concanavalin A-Texas Red, TasA-mCherry), B. subtilis; format: cell-based, Bacillus subtilis
Excerpt: The cells were washed in PBS and stained for exopolysaccharide with a conjugate of concanavalin A with Texas-Red.
[…] Cells were washed in PBS, and visualized by fluorescence microscopy.
To investigate further, exopolysaccharide was visualized by fluorescence microscopy using a conjugate of the carbohydrate-binding protein concanavalin A with Texas Red (FIG. 5) (McSwain et al., 2005). As evidence of specificity, the conjugate decorated wild-type cells but not cells from a mutant (Aeps) blocked in exopolysaccharide production (FIG. 6A). Indeed, at an exposure at which concanavalin A staining with the wild type strain gave an extremely bright fluorescent signal, little or no signal could be detected for the Aeps mutant, except at long exposures and enhanced brightness (FIG. 6A). Next, we investigated the effects of norspermidine and spermidine. […] Therefore, the difference in the staining was evidently due to differential levels of cell-associated exopolysaccharide. […] Thus, while not being bound to any theory, it is believed that norspermidine disrupts the matrix and by targeting exopolysaccharide.

SMILES | disassembly of pre-formed pellicles (B. subtilis pellicles) | reduction of Proteus mirabilis biofilm formation [1] | inhibition of biofilm formation on solid biofilm medium [2] | inhibition of Pseudomonas biofilm formation [3] | inhibition of E. coli submerged biofilm formation (E. coli strain MC4100) | minimal effective concentration ([4]; NCBI3610, B. subtilis biofilm inhibition assay, library of polyamines, read-out: MBIC- Minimal Biofilm Inhibitory Concentration) | inhibition of pellicle formation at 50 μM [4] | biofilm-inhibitory activity against B. subtilis ([4]; library of polyamines, structure-activity) | inhibition of S. aureus biofilm formation (S. aureus strain SCO1) | inhibition of S. aureus submerged biofilm formation, compound screen (S. aureus strain SCO1) | staining of exopolysaccharide, E. coli cells [5] | cell growth [6] | staining of exopolysaccharide, S. aureus cells [7] | effect on pellicle formation by amyloid fiber (TasA) mutant [8] | effect on residual pellicle of exopolysaccharide mutant [8] | minimal effective concentration ([4]; NCBI3610, read-out: MBIC- Minimal Biofilm Inhibitory Concentration) | concentration at which biofilm formation was inhibited ([4]; authentic norspermidine, pellicle formation NCBI3610) | pattern of concanavalin A-Texas Red staining of exopolysaccharide ([9]; norspermidine 25 μM, spermidine 1 mM) | effect on protein component of the matrix (TasA-mCherry) ([9]; norspermidine 50 μM)
NCCCNCCCNCCCN [Molecule 2, N′-[3-(3-aminopropylamino)propyl]propane-1,3-diamine] | triggered disassembly of the pellicles | sufficient to reduce biofilm formation | inhibit biofilm formation | inhibit biofilm formation | inhibited the formation of submerged biofilms | 200 µM | inhibit biofilm formation | exhibited biofilm-inhibitory activity | inhibit biofilm formation | inhibited the formation of submerged biofilms |  |  |  |  |  |  |  |  | 
NCCCNCCCN [Molecule 1, N-(3-aminopropyl)propane-1,3-diamine] |  | sufficient to reduce biofilm formation | inhibit biofilm formation | inhibit biofilm formation | inhibited the formation of submerged biofilms |  | inhibit biofilm formation |  | inhibit biofilm formation | inhibited the formation of submerged biofilms | markedly diminished staining of exopolysaccharide | not significantly inhibited | markedly diminished staining of exopolysaccharide | abolished pellicle formation | little effect on the residual pellicle | 25 to 50 µM | 25 µM | disrupted the relatively uniform, cell-associated pattern of staining | little or no effect on the protein component of the matrix
